Patent publication US5430062A, “Stilbene derivatives as anticancer agents” (priority 1993, dated 1995)
Values joined by “and” are separate entries in the source; they are usually repeats but may differ in a detail not shown here. Identical values can stand only once.

Test system: HL-60 (TB) leukemia
Experiment: Cytotoxicity, HL-60(TB) leukemia
Conditions: Hydrochloride

With `COc1cc(CNc2ccc(C)cc2)cc(OC)c1OC.Cl` [110a, 4-Methyl-N-(3,4,5-trimethoxybenzyl)aniline Hydrochloride] the “Log10 GI50, HL-60 (TB)” value was < -7.00 and -7.05.
